Here are results for 32 compounds from patent publication US7528138B2, “Pyrazolo[1,5-a]pyrimidines useful as inhibitors of protein kinases” (Vertex Pharmaceuticals Incorporated, priority 2004, dated 2009).

What all share (assay type): biochemical
One assay has as its target T1, Itk (Homo sapiens, UniProt Q08881).
T1 sequence (Q08881 1-620): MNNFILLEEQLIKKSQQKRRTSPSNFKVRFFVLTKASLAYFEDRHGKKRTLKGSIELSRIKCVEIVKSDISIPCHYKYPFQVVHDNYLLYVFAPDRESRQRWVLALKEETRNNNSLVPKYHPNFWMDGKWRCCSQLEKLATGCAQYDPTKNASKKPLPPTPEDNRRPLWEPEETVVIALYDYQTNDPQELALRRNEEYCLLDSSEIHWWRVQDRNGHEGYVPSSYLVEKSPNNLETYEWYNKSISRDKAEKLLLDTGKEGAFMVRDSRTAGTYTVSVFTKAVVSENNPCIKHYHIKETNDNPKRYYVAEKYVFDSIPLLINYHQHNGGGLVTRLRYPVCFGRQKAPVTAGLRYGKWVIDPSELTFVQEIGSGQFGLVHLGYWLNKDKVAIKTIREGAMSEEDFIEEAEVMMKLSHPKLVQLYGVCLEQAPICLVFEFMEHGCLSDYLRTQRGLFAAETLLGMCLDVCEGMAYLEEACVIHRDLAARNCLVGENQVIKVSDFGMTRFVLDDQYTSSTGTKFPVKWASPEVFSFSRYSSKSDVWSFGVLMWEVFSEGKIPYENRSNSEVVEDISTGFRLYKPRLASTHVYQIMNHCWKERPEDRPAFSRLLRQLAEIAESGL
The assay can be described thus: ITK Inhibition Assay (Radiometric), radioactive-phosphate incorporation. As to conditions: enzyme inhibition data (Ki), Table 11; radiometric or UV assay not stated. The method in brief:
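Radiometric 33P incorporation into SAM68 peptide (D332-443) with filter capture and scintillation counting; 10 min pre-incubation then 10 min reaction at 25° C. IC50 format: 30 nM Itk, 15 μM ATP, 2 μM peptide, HEPES pH 7.5. Ki(app) format: 50 nM Itk, 7.5 μM ATP, 3 μM peptide, MOPS pH 7.0.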

Another assay has as its target T2, JAK3 (Homo sapiens, UniProt P52333).
T2 sequence (P52333 1-1124): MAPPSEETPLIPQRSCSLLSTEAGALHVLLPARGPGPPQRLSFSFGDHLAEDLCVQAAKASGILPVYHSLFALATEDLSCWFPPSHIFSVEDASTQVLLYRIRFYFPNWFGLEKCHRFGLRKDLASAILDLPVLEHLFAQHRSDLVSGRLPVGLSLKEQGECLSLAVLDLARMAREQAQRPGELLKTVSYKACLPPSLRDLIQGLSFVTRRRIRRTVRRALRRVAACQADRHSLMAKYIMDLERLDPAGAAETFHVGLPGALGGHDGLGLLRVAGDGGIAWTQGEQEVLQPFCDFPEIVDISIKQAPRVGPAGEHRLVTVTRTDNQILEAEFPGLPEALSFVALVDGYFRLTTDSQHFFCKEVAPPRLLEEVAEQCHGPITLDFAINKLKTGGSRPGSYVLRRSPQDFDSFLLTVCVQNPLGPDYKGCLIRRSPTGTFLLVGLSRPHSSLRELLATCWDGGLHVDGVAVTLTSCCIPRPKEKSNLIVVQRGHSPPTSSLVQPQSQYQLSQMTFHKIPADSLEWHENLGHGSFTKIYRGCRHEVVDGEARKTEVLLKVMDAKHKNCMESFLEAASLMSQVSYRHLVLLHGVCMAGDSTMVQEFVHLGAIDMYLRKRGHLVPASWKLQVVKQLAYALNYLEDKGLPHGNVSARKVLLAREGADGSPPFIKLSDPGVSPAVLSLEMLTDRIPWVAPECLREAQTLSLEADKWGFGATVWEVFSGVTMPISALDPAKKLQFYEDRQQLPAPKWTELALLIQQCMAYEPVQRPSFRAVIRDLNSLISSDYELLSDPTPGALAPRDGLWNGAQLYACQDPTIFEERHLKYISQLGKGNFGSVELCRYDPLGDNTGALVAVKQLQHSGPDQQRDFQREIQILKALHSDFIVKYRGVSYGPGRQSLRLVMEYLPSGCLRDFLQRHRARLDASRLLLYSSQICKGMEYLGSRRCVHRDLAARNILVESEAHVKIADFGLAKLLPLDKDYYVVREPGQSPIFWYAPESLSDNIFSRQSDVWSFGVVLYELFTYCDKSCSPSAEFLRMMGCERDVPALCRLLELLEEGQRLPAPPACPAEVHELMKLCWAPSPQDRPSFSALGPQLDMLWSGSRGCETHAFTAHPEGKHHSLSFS
The assay can be described thus: JAK3 Inhibition Assay, 33P incorporation. Conditions: enzyme inhibition data (Ki), Table 11. The method in brief: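 33P incorporation into 1 μM poly(Glu)4Tyr was counted after TCA stop and glass fiber filtration. The 20 min reaction ran at 25 °C with 1 nM JAK3 and 5 μM ATP (200 uCi/μmole). Buffer was 100 mM HEPES pH 7.4, 10 mM MgCl2, 25 mM NaCl, 1 mM DTT, 0.01% BSA.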

For another assay, the target named is c-Met (Homo sapiens, UniProt P08581). The assay can be described thus: c-Met Inhibition Assay, coupled enzyme system. Conditions: enzyme inhibition data (Ki), Table 11. The method in brief:
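Pyruvate kinase/lactate dehydrogenase-coupled NADH assay in HEPES pH 7.5 with 80 nM c-Met, 200 μM ATP and 10 μM polyGluTyr at 30° C. Compound (0.006–12.5 μM final, 12-point) preincubated 10 min before ATP start; rates over 10 min gave Ki.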

c-Met, sequence (P08581 25-1390): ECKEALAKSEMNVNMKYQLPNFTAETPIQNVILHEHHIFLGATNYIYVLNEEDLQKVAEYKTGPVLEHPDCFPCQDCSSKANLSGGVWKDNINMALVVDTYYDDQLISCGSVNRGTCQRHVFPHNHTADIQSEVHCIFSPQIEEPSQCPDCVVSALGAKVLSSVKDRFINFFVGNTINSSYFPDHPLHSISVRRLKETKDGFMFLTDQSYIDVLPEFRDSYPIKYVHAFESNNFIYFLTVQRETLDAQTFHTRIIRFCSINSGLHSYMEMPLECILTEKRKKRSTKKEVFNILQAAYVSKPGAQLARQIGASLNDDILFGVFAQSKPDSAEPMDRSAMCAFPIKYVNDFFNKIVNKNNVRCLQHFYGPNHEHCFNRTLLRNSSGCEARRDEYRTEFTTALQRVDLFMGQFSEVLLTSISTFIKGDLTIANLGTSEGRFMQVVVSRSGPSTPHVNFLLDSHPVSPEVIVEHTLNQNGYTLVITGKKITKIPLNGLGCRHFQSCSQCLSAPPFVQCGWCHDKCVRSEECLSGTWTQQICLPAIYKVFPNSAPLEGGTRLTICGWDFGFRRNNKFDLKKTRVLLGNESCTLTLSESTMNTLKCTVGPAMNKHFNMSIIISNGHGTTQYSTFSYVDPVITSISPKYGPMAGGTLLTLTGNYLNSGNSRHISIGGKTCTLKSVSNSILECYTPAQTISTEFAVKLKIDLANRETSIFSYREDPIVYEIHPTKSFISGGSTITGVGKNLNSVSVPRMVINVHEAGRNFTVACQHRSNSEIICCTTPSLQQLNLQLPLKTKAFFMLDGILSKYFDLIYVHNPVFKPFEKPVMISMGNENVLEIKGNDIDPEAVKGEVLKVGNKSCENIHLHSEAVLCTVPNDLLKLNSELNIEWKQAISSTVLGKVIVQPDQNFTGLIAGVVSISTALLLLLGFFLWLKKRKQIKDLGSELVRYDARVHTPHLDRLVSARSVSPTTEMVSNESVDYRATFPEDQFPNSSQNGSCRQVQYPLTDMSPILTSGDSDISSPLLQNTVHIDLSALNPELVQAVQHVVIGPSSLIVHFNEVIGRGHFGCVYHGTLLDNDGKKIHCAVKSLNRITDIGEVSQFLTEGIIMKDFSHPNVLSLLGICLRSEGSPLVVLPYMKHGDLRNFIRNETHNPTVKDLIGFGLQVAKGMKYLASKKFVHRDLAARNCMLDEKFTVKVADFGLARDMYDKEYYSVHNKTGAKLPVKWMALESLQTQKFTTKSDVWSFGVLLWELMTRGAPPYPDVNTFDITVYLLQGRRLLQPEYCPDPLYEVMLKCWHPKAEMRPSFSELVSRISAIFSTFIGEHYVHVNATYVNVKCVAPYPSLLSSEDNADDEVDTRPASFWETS

Regarding `CN(C)CCNc1cc(-c2cnc3c(-c4ccccn4)c(N)nn3c2)ccn1` [Compound V-246], the results for the inhibitory constant (Ki) on Itk, at JAK3 and on c-Met were 0.5 to 5 µM, greater than 5 µM and less than 0.5 µM, respectively.

With `Nc1nn2cc(-c3ccnc(N4CCN(Cc5ccccc5)CC4)c3)cnc2c1-c1ccccn1` [Compound V-247], the Ki is 0.5 to 5 µM at Itk, greater than 5 µM on JAK3 and less than 0.5 µM on c-Met.

Turning to `Nc1nn2cc(-c3ccnc(N4CCN(CCO)CC4)c3)cnc2c1-c1ccccn1` [Compound V-248], the figures for the Ki on Itk, at JAK3 and at c-Met were 0.5 to 5 µM, 0.5 to 5 µM and less than 0.5 µM, respectively.

For the compound `Nc1nn2cc(-c3ccnc(N4CCN(CCOCCO)CC4)c3)cnc2c1-c1ccccn1` [Compound V-249], the Ki was 0.5 to 5 µM at Itk, 0.5 to 5 µM at JAK3 and less than 0.5 µM on c-Met.

As for `Nc1nn2cc(-c3ccnc(NCCCC4=NCC=N4)c3)cnc2c1-c1ccccn1` [Compound V-250], the Ki is less than 0.5 µM on Itk, 0.5 to 5 µM at JAK3 and less than 0.5 µM at c-Met.

As to `Nc1nn2cc(-c3ccnc(N4CCC[C@@H]4CO)c3)cnc2c1-c1ccccn1` [Compound V-251], the Ki at Itk was 0.5 to 5 µM; on JAK3, greater than 5 µM; at c-Met, less than 0.5 µM.

On to `CN(Cc1cccnc1)c1cc(-c2cnc3c(-c4ccccn4)c(N)nn3c2)ccn1` [Compound V-252], for which the figures for the Ki on Itk, on JAK3 and at c-Met were 0.5 to 5 µM, greater than 5 µM and 0.5 to 5 µM, respectively.

For `CCOC(=O)C1CCN(c2cc(-c3cnc4c(-c5ccccn5)c(N)nn4c3)ccn2)CC1` [Compound V-253], the Ki on Itk was 0.5 to 5 µM; on JAK3, greater than 5 µM; at c-Met, 0.5 to 5 µM.

Consider `CN1CCCN(c2cc(-c3cnc4c(-c5ccccn5)c(N)nn4c3)ccn2)CC1` [Compound V-254], for which the figures for the Ki at Itk, on JAK3 and on c-Met were 0.5 to 5 µM, greater than 5 µM and 0.5 to 5 µM, respectively.

As to `Nc1nn2cc(-c3ccnc(N4CCN(c5cnccn5)CC4)c3)cnc2c1-c1ccccn1` [Compound V-255], the results for the inhibition constant Ki at Itk, at JAK3 and at c-Met were 0.5 to 5 µM, greater than 5 µM and 0.5 to 5 µM, respectively.

As for `Nc1nn2cc(-c3ccnc(N4CCC(N5CCCC5)CC4)c3)cnc2c1-c1ccccn1` [Compound V-256], the Ki on Itk is 0.5 to 5 µM; at JAK3, greater than 5 µM; on c-Met it was 0.5 to 5 µM.

Consider `Nc1nn2cc(-c3cccnc3N3CCOCC3)cnc2c1-c1ccccn1` [Compound V-257], for which the Ki is 0.5 to 5 µM at Itk, greater than 5 µM at JAK3 and 0.5 to 5 µM at c-Met.

On to `Nc1nn2cc(-c3cccnc3N3CCCC3)cnc2c1-c1ccccn1` [Compound V-258], for which the values for the Ki at Itk, on JAK3 and on c-Met were 0.5 to 5 µM, greater than 5 µM and 0.5 to 5 µM, respectively.

Turning to `Nc1nn2cc(-c3cccnc3N3CCCCC3)cnc2c1-c1ccccn1` [Compound V-259], the Ki on Itk is 0.5 to 5 µM; at JAK3 it was greater than 5 µM; on c-Met, 0.5 to 5 µM.

In the case of `COC(=O)C1CCN(c2ncccc2-c2cnc3c(-c4ccccn4)c(N)nn3c2)CC1` [Compound V-260], the figures for the inhibition constant Ki on Itk, at JAK3 and on c-Met were 0.5 to 5 µM, greater than 5 µM and 0.5 to 5 µM, respectively.

With `Nc1nn2cc(-c3cccnc3N3CC[C@H](CN4CCCC4)C3)cnc2c1-c1ccccn1` [Compound V-261], the figures for the inhibition constant Ki at Itk, at JAK3 and at c-Met were 0.5 to 5 µM, greater than 5 µM and 0.5 to 5 µM, respectively.

As to `Nc1nn2cc(-c3cccnc3N3CCC[C@H]3CO)cnc2c1-c1ccccn1` [Compound V-262], the Ki at Itk is 0.5 to 5 µM; at JAK3 it was greater than 5 µM; at c-Met, 0.5 to 5 µM.

On to `CCN(Cc1ccccn1)c1ncccc1-c1cnc2c(-c3ccccn3)c(N)nn2c1` [Compound V-263], for which the Ki was 0.5 to 5 µM at Itk, greater than 5 µM at JAK3 and 0.5 to 5 µM on c-Met.

As to `Nc1nn2cc(-c3cccnc3N3CCN(Cc4ccncc4)CC3)cnc2c1-c1ccccn1` [Compound V-264], the results for the Ki on Itk, at JAK3 and at c-Met were 0.5 to 5 µM, greater than 5 µM and 0.5 to 5 µM, respectively.

As to `Nc1nn2cc(-c3cccnc3N3CCC(N4CCCC4)CC3)cnc2c1-c1ccccn1` [Compound V-265], the Ki at Itk was 0.5 to 5 µM; on JAK3, greater than 5 µM; at c-Met, 0.5 to 5 µM.

Turning to `Nc1nn2cc(-c3cccnc3N3CCN(CCO)CC3)cnc2c1-c1ccccn1` [Compound V-266], the Ki on Itk is 0.5 to 5 µM; on JAK3 it was greater than 5 µM; at c-Met it was 0.5 to 5 µM.

`CN1CCCN(c2ncccc2-c2cnc3c(-c4ccccn4)c(N)nn3c2)CC1` [Compound V-267]: the Ki is 0.5 to 5 µM on Itk, greater than 5 µM on JAK3 and 0.5 to 5 µM on c-Met.

On to `CN1CCN(c2ncccc2-c2cnc3c(-c4ccccn4)c(N)nn3c2)CC1` [Compound V-268], for which the Ki is 0.5 to 5 µM at Itk, greater than 5 µM on JAK3 and 0.5 to 5 µM at c-Met.

Take `CC(=O)N1CCN(c2ncccc2-c2cnc3c(-c4ccccn4)c(N)nn3c2)CC1` [Compound V-269]: the Ki on Itk is 0.5 to 5 µM; at JAK3, greater than 5 µM; at c-Met it was 0.5 to 5 µM.

`Nc1nn2cc(-c3cccnc3N3CCCC(CO)C3)cnc2c1-c1ccccn1` (stereo not drawn) [Compound V-270]: the Ki is 0.5 to 5 µM on Itk, greater than 5 µM on JAK3 and 0.5 to 5 µM on c-Met.

`Nc1nn2cc(-c3cccnc3N3CCC(CCO)CC3)cnc2c1-c1ccccn1` [Compound V-271]: the values for the Ki on Itk, at JAK3 and on c-Met were 0.5 to 5 µM, greater than 5 µM and 0.5 to 5 µM, respectively.

As to `Nc1nn2cc(N3CCC[C@@H]3CN3CCCC3)cnc2c1-c1ccccn1` [Compound V-272], the inhibition constant (Ki) at Itk was 0.5 to 5 µM; at JAK3, greater than 5 µM; at c-Met it was 0.5 to 5 µM.

`Cc1cnc2c(-c3cc(NCc4cc(Cl)ccc4Cl)ncn3)c(N)nn2c1` [Compound V-275]: the inhibitory constant (Ki) was 0.5 to 5 µM at Itk, greater than 5 µM at JAK3 and 0.5 to 5 µM on c-Met.

`CCC(C)Nc1cc(-c2c(N)nn3cc(C)cnc23)ncn1` (stereo not drawn) [Compound V-282]: the figures for the Ki on Itk, at JAK3 and on c-Met were 0.5 to 5 µM, 0.5 to 5 µM and less than 0.5 µM, respectively.

`Cc1cnc2c(-c3cc(NC(C)CO)ncn3)c(N)nn2c1` (stereo not drawn) [Compound V-283]: the Ki on Itk, on JAK3 and on c-Met was 0.5 to 5 µM each time.

As to `Cc1cnc2c(-c3cc(NC4CCN(C)CC4)ncn3)c(N)nn2c1` [Compound V-284], the results for the Ki at Itk, on JAK3 and on c-Met were 0.5 to 5 µM, 0.5 to 5 µM and less than 0.5 µM, respectively.

For the compound `CC[C@H](CO)Nc1cc(-c2c(N)nn3cc(C)cnc23)ncn1` [Compound V-287], the results for the Ki at Itk, on JAK3 and at c-Met were 0.5 to 5 µM, 0.5 to 5 µM and less than 0.5 µM, respectively.
